Paper PMC12142043, “Cell-based high-content approach for SARS-CoV-2 neutralization identifies unique monoclonal antibodies and PI3K pathway inhibitors” (Frontiers in Cell and Developmental Biology, 2025)
Counter-ions that a name gives are not always drawn. Like-named read-outs stand apart in the source and are kept apart here.

Tested on: SARS-CoV-2 (USA-WA1/2020) in Calu-3 cells
Type: cell-based
[1] = high dose (10 µM), Calu-3, 48 h
[2] = low dose (100 nM), Calu-3, 48 h

| Compound | dsRNA signal, AU High [1] [AU] | dsRNA signal, AU Low [2] [AU] | dsRNA signal, AU High | dsRNA signal, AU Low |
| --- | --- | --- | --- | --- |
| CCN(CC)CCCCNc1ncc2cc(-c3cc(OC)cc(OC)c3)c(NC(=O)NC(C)(C)C)nc2n1 [PD 173074] | 6568.6 | 3359.6 | – | – |
| c1cc(Nc2cc(C3CC3)[nH]n2)nc(Nc2ccc3nc[nH]c3c2)n1 [APY29] | 1195.6 | 15781.0 | – | – |
| O=C(NCc1ccccc1)c1csc(Nc2ccncn2)n1 [Thiazovivin] | 2364.1 | 26827.3 | – | – |
| COc1ccc2c(c1)[nH]c1c(C)nccc12 [Harmine hydrochloride] | 0.0 | 53937.1 | – | – |
| CCn1c(=O)c(-c2ccc(-c3cncs3)cc2Cl)cc2cnc(Nc3ccc(N4CCN(C)CC4)cc3)nc21 [FRAX597] | 1538.8 | 50796.9 | – | – |
| CC[C@@H](N)CNc1ccnc(-c2cc(-c3cnn(C)c3)ccc2O)n1.Cl.Cl [CRT 0066101] | 0.0 | 45629.7 | – | – |
| COc1cc2ncnc(Nc3ccc(F)c(Cl)c3)c2cc1NC(=O)/C=C/CN1CCCCC1 [Dacomitinib (PF299804, PF299)] | 0.0 | 7030.9 | – | – |
| CC(C)=CC[C@@H](O)C1=CC(=O)c2c(O)ccc(O)c2C1=O [Shikonin] | 54262.1 | 4009.3 | – | – |
| CC(C)NC(=O)COc1cccc(-c2nc(Nc3ccc4[nH]ncc4c3)c3ccccc3n2)c1 [SLx-2119] | 20785.5 | 59494.3 | – | – |
| CC(C)(C)c1ccc(S(=O)(=O)/C=C/C#N)cc1 [Bay 11-7085] | 63723.6 | 21705.2 | – | – |
| CN(C)C/C=C/C(=O)Nc1cc2c(Nc3ccc(F)c(Cl)c3)ncnc2cc1O[C@H]1CCOC1 [Afatinib (BIBW2992)] | 1924.8 | 12314.4 | – | – |
| FC(F)c1nc2ccccc2n1-c1nc(N2CCOCC2)nc(N2CCOCC2)n1 [ZSTK474] | 6069.9 | 23073.5 | – | – |
| Cc1cn(-c2cc(NC(=O)c3ccc(C)c(Nc4nccc(-c5cccnc5)n4)c3)cc(C(F)(F)F)c2)cn1.Cl.O [Nilotinib monohydrochloride monohydrate] | 2759.7 | 14574.2 | – | – |
| CO[C@H]1C[C@@H]2CC[C@@H](C)[C@@](O)(O2)C(=O)C(=O)N2CCCC[C@H]2C(=O)O[C@H]([C@H](C)C[C@@H]2CC[C@@H](OP(C)(C)=O)[C@H](OC)C2)CC(=O)[C@H](C)/C=C(\C)[C@@H](O)[C@@H](OC)C(=O)[C@H](C)C[C@H](C)/C=C/C=C/C=C/1C [Ridaforolimus (Deforolimus, MK-8669)] | 23072.2 | 31512.5 | – | – |
| Fc1cc(-c2cccc3ncc(-c4cnn(C5CCNCC5)c4)nc23)cc(F)c1CN1CCOCC1 [NVP-BSK805 2HCl] | 1810.2 | 2038.5 | – | – |
| CCN1CCN(c2ccc(Nc3cc(N(C)C(=O)Nc4c(Cl)c(OC)cc(OC)c4Cl)ncn3)cc2)CC1 [BGJ398] | 24356.1 | 22673.4 | – | – |
| COC(=O)c1c2c(c3ccccc3c1O)OC(C)(C)C=C2 [Mollugin] | 394.8 | 5157.1 | – | – |

| Compound | dsRNA signal, AU High [1] [AU] | dsRNA signal, AU Low [2] [AU] | dsRNA signal, AU High | dsRNA signal, AU Low |
| --- | --- | --- | --- | --- |
| CN1CCCN(C(=O)c2cccc(-c3ccc(/C=C4/C(=O)Nc5ccc(Cl)cc54)o3)c2)CC1 [CX-6258] | 0.0 | 9957.5 | – | – |
| O=[N+]([O-])c1ccc(-c2nc(-c3ccncc3)c(-c3ccc(F)cc3)[nH]2)cc1 [PD 169316] | 4123.0 | 13218.6 | – | – |
| COc1cc(OC)c(C=C2C(O)=Nc3ccccc32)c(OC)c1 [IC261] | 6564.9 | 46952.8 | – | – |
| c1nc2nc(Nc3ccc(N4CCOCC4)cc3)nc(NC3CCCCC3)c2[nH]1 [Reversine] | – | – | 27234.6 | 49415.3 |
| N#Cc1ccc2ncnc(NCCc3ccccc3)c2c1 [Senexin A] | 30520.6 | 31796.6 | – | – |
| VX-11e | 6059.4 | 11825.4 | – | – |
| Cc1cc(C)c(/C=C2\C(=O)Nc3ccccc32)[nH]1 [SU5416] | 39551.1 | 20455.1 | – | – |
| CCS(=O)(=O)c1cccc(-c2cc(C(=O)NC3CCN(C)CC3)c(C)c3[nH]c4ncc(C)cc4c23)c1 [TAK-901] | 42486.6 | 61332.6 | – | – |
| c1ccc(-c2nn3c(c2-c2ccnc4cc(OCCN5CCOCC5)ccc24)CCC3)nc1 [LY2109761] | 9694.6 | 5823.5 | – | – |
| OC[C@H]1O[C@@H](OCCc2ccc(O)cc2)[C@H](O)[C@@H](O)[C@@H]1O [Salidroside] | 19295.0 | 56220.3 | – | – |
| CCCNC(=O)c1cn2ncnc(Nc3cc(C(=O)NC4CC4)ccc3C)c2c1C.Cl [BMS-582949 hydrochloride] | 7441.1 | 64364.9 | – | – |
| Cc1cc(C(=O)NOCCO)c(Nc2ccc(I)cc2F)n(C)c1=O [AZD8330] | 29149.3 | 63631.5 | – | – |
| CC(C)=CCC[C@](C)(O)[C@H]1CC[C@]2(C)[C@@H]1[C@H](O)C[C@@H]1[C@@]3(C)CC[C@H](O[C@@H]4O[C@H](CO)[C@@H](O)[C@H](O)[C@H]4O)C(C)(C)[C@@H]3CC[C@]12C [Ginsenoside Rh2] | 41827.1 | 30569.1 | – | – |
| COc1ccc2c(c[n+](C)c3c4cc5c(cc4ccc23)OCO5)c1OC [Chelerythrine Chloride] | 10306.1 | 22120.5 | – | – |
| CC(C)=CCC[C@](C)(O[C@@H]1O[C@H](CO)[C@@H](O)[C@H](O)[C@H]1O)[C@H]1CC[C@]2(C)[C@@H]1[C@H](O)C[C@@H]1[C@@]3(C)CC[C@H](O)C(C)(C)[C@@H]3[C@@H](O[C@@H]3O[C@H](CO)[C@@H](O)[C@H](O)[C@H]3O[C@@H]3O[C@@H](C)[C@H](O)[C@@H](O)[C@H]3O)C[C@]12C [Ginsenoside Re] | 10054.1 | 65920.2 | – | – |
| O=C(/C=C/c1ccc(O)c(O)c1)O[C@H](Cc1ccc(O)c(O)c1)C(=O)O [Rosmarinic acid] | 3864.4 | 42457.9 | – | – |
